# Literature values, collected in patent US11466019B2, “Triazolo[4,5-d] pyramidine derivatives and their use as purine receptor antagonists” (Vernalis (R&D) Limited, priority 2008, dated 2022).
# Assays:
# Parkinsonian patients = conditions: cited from earlier work
# cataleptic responses = conditions: cited from earlier work
SMILES,"mean objective disability scores (Parkinsonian patients; 15 Parkinsonian patients, treated for up to 12 weeks)","patients who reported moderate or marked subjective improvement (Parkinsonian patients; of 15 Parkinsonian patients, treated for up to 12 weeks)","serum theophylline levels (Parkinsonian patients; slow release oral theophylline preparation, after one week, Parkinsonian patients)",anticataleptic effects of a subthreshold dose of L-DOPA plus benserazide (cataleptic responses; combination),catalepsy induced by haloperidol and reserpine (cataleptic responses; in vivo),cataleptic responses induced by intracerebroventricular administration of CGS 21680 (cataleptic responses; oral administration)
"Cn1c(=O)c2[nH]cnc2n(C)c1=O [theophylline, 1,3-dimethylxanthine]",significant improvements,11,4.44 mg/L,,,
"CCCn1c(=O)c2c(nc(/C=C/c3ccc(OC)c(OC)c3)n2C)n(CCC)c1=O [KF 17837, E-8-(3,4dimethoxystyryl)-1,3-dipropyl-7-methylxanthine]",,,,potentiated the anticataleptic effects,reduced the catalepsy,significantly ameliorated
